What all share (type): functional, cell-based
Experiment [1] concerns HL-60. Kind of experiment: In vitro cytotoxicity against HL60 cells. The note with it: Homo sapiens.
In experiment [2] the test system is HL-60. Kind of experiment: In vitro apoptotic activity against HL60 cells after 48 hr of treatment. Conditions: Homo sapiens, HL-60, 48 h.
Experiment [3] relates to HL-60. Briefly: The compound evaluated for apoptotic activity against multi drug resistant HL60 R cells (the results were obtained after 48 hr treatment). The note with it: Homo sapiens, HL-60, 48 h.
The subject of experiment [4] is HuT78. Kind of experiment: The compound evaluated for Cytotoxic activity against multi drug resistant HUT 78 cells (the results were obtained after 48 hr treatment). The note with it: Homo sapiens, HuT78, 48 h.
For experiment [5], the system named is K562. Kind of experiment: The compound evaluated for apoptotic activity against K562 cells (the results were obtained after 48 hr treatment). Conditions: Homo sapiens, K562, 48 h.
Experiment [6] concerns HuT78. Briefly: The compound evaluated for apoptotic activity against multi drug resistant HUT 78 cells (the results were obtained after 48 hr treatment). The note with it: Homo sapiens, HuT78, 48 h.
In experiment [7] the test system is K562. Kind of experiment: The compound evaluated for Cytotoxic activity against multi drug resistant K562 cells (the results were obtained after 48 hr treatment). The note with it: Homo sapiens, K562, 48 h.
In experiment [8] the test system is HL-60. Briefly: The compound evaluated for Cytotoxic activity against multi drug resistant HL60R cells (the results were obtained after 48 hr treatment). The note with it: Homo sapiens, HL-60, 48 h.
For experiment [9], the system named is HuT78. Briefly: The compound evaluated for apoptotic activity against HUT 78 cells (the results were obtained after 48 hr treatment). Conditions: Homo sapiens, HuT78, 48 h.

Consider `COc1ccc(/C=C/c2ccc3c(c2)C(C)(C)CCC3(C)C)cc1`, for which, in the experiment on HL-60 [1], half-maximal inhibition (IC50) was put at 50 µM. In the experiment with HL-60 [2], the AC50 is above 100 µM.

With `C/C(=C\c1ccccc1C(=O)O)c1ccc2c(c1)C(C)(C)CCC2(C)C`, the concentration for half-maximal inhibition (IC50) in the experiment on HL-60 [1] is above 100 µM. The compound also displayed an AC50 in the experiment on HL-60 [2] above 100 µM.

The compound `COc1ccc(/C=C(/C)c2ccc3c(c2)C(C)(C)CCC3(C)C)cc1N` registered an IC50 in the experiment on HL-60 [1] of 42 µM. The activity in the experiment on HL-60 [2] was half-maximal at 90 µM (AC50).

For the compound `COc1ccc(/C=C\c2ccc3c(c2)C(C)(C)CCC3(C)C)cc1`, the IC50 with HL-60 [1] was 50 µM. Moreover, in the experiment on HL-60 [2], the AC50 is above 100 µM.

As for `CC1(C)CCC(C)(C)c2cc(/C=C/c3ccc(N)cc3)ccc21`, in the experiment on HL-60 [1], the IC50 is 18 µM. The same compound registered an AC50 with HL-60 [2] of 38 µM.

On to `CC1(C)CCC(C)(C)c2cc(/C=C\c3ccc(N)cc3)ccc21`, for which the AC50 in the experiment on HL-60 [3] was above 100 µM; with K562 [5], above 100 µM; with HL-60 [2], 38 µM; in the experiment on HuT78 [6], above 100 µM. In addition, the IC50 is 43 µM with HuT78 [4], 18 µM with HL-60 [1], 50 µM in the experiment on K562 [7] and 25 µM in the experiment on HL-60 [8].

`C/C(=C\c1ccc(C(=O)O)cc1)c1ccc2c(c1)C(C)(C)CCC2(C)C` yielded an IC50 in the experiment on HL-60 [1] of 46 µM. The AC50 with HL-60 [2] is above 100 µM.

In the experiment with HL-60 [1], `C/C(=C/c1cc(C(=O)O)no1)c1ccc2c(c1)C(C)(C)CCC2(C)C` displayed a concentration for half-maximal inhibition (IC50) of 26 µM. Further, in the experiment with HL-60 [2], half-maximal activity (AC50) was put at 47 µM.

Take `COc1ccc(/C=C\c2ccc3c(c2)C(C)(C)CCC3(C)C)cc1N`: the AC50 is 46 µM with HuT78 [9], 87 µM with HL-60 [3], 50 µM with K562 [5] and 50 µM in the experiment on HL-60 [2]. The IC50 came out at 22 µM in the experiment on HuT78 [4], 25 µM with HL-60 [1], 42 µM in the experiment on K562 [7] and 48 µM in the experiment with HL-60 [8].

Take `COc1ccc(/C=C(\C)c2ccc3c(c2)C(C)(C)CCC3(C)C)cc1N`: the IC50 with HL-60 [1] turned out to be 20 µM. Also, in the experiment on HL-60 [2], the activity was half-maximal at 40 µM (AC50).

`COc1ccc(/C=C/c2ccc3c(c2)C(C)(C)CCC3(C)C)cc1N`: half-maximal inhibition in the experiment on HL-60 [1] (IC50) was put at 61 µM. Further, in the experiment with HL-60 [2], half-maximal activity (AC50) was put at 85 µM.

On to `CC1(C)CCC(C)(C)c2cc(/C=C/c3cccc(N)c3)ccc21`, for which the IC50 in the experiment on HL-60 [1] was 20 µM. In the experiment on HL-60 [2], the AC50 came out at 40 µM.

In the case of `C/C(=C\c1cccc(C(=O)O)c1)c1ccc2c(c1)C(C)(C)CCC2(C)C`, the IC50 in the experiment on HL-60 [1] was above 100 µM. In the experiment with HL-60 [2], this compound displayed an AC50 above 100 µM.

In turn, `CC1=C(/C=C/C(C)=C/C=C/C(C)=C/C(=O)O)C(C)(C)CCC1` [TRETINOIN] displayed an AC50 with HL-60 [2] above 100 µM.

`C/C(=C/c1ccccc1C(=O)O)c1ccc2c(c1)C(C)(C)CCC2(C)C` yielded an IC50 in the experiment with HL-60 [1] of 52 µM. In the experiment on HL-60 [2], the AC50 was 90 µM.

Consider `CC1(C)CCC(C)(C)c2cc(/C=C\c3cccc(N)c3)ccc21`, for which the AC50 in the experiment with HuT78 [9] was 10 µM; with HL-60 [3] it was 25 µM; in the experiment with K562 [5] it was 27 µM; with HL-60 [2] it was 10 µM. Further, the IC50 with HuT78 [4] was 5 µM; with HL-60 [1], 10 µM; in the experiment on K562 [7], 13 µM; with HL-60 [8], 15 µM.

The compound `C/C(=C/c1ccc(C(=O)O)cc1)c1ccc2c(c1)C(C)(C)CCC2(C)C` came in with an IC50 in the experiment with HL-60 [1] of 10 µM. The compound also showed an AC50 with HL-60 [2] of 40 µM.

`C/C(=C/c1cccc(C(=O)O)c1)c1ccc2c(c1)C(C)(C)CCC2(C)C`: in the experiment on HL-60 [1], half-maximal inhibition (IC50) required 50 µM. The compound further returned an AC50 in the experiment on HL-60 [2] of 80 µM.

A word on the IC50: it is the midpoint of a concentration-inhibition curve. The low end stands for inhibition by little substance, the high end for a need for much substance. The AC50 is the concentration giving half of the maximal activity seen.
